Reference: BindingDB's records for doi:10.1021/jm0205043 (University of California, 2003)

Target: Cyclin-dependent kinase 2 (Homo sapiens, UniProt P24941)
Assay: Inhibition of Cyclin-dependent kinase 2 (CDK2)

IC50: 310 nM
SMILES: CN1CCC(c2c(O)cc(O)c3c(O)c(Cc4ccc([N+](=O)[O-])cc4)oc23)CC1 [4,6-Dihydroxy-7-(1-methyl-piperidin-4-yl)-2-(4-nitro-benzylidene)-benzofuran-3-one]
